Laboratory results: patent US20220396565A1 (Hoffmann-La Roche Inc., priority 2020, published 2022)
Where a name gives a salt, the structure may show the parent alone. Read-outs that look alike come from different tables or passages of the source.

Tested on: Acinetobacter baumannii ATCC17961
Test: Antimicrobial susceptibility testing: 90% growth inhibitory concentration (IC90) determination, Iso-Sensitest broth
Format: cell-based
In short: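 Twofold serial dilutions (e.g. 10 to 0.02 μM final) were tested in Iso-Sensitest broth against ~5×10^(5) CFU/ml at 35±2 °C. OD600 was read every 20 min over 16 h. IC90 was derived from growth inhibition during the logarithmic phase.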

[1] = Acinetobacter baumannii, ATCC17961, 90% growth inhibitory concentration, Acinetobacter baumannii ATCC17961, Iso-Sensitest broth, read-out: ATCC 17961 IC90
[2] = Acinetobacter baumannii, ATCC17961, read-out: ATCC 17961 IC90

| Compound | IC90 [1] | other results |
| --- | --- | --- |
| COc1ccc(-c2cnc(C(=O)Nc3ccc(C(=O)N4CCC(C(=O)NCCCC(=O)O)CC4)c(Cl)c3)n2C)c(F)c1F [Example 68, 4-[[1-[2-chloro-4-[[5-(2,3-difluoro-4-methoxy-phenyl)-1-methyl-imidazole-2-carbonyl]amino]benzoyl]piperidine-4-carbonyl]amino]butanoic acid] | 2100 nM | – |
| COc1ccc(-c2cnc(C(=O)Nc3ccc(C(=O)N4CCN(C(=O)CC5(O)CNC5)CC4)c(Cl)c3)n2C)c(F)c1F [Example 177, N-[3-chloro-4-[4-[2-(3-hydroxyazetidin-3-yl)acetyl]piperazine-1-carbonyl]phenyl]-5-(2,3-difluoro-4-methoxy-phenyl)-1-methyl-imidazole-2-carboxamide formate] | 50 nM | – |
| Cn1c(-c2ccc(OC(F)F)c(F)c2Cl)cnc1C(=O)Nc1ccc(C(=O)N2CCN(C(=O)C[C@@H]3CCNC3)CC2)c(Cl)c1 [Example 147, 5-[2-chloro-4-(difluoromethoxy)-3-fluoro-phenyl]-N-[3-chloro-4-[4-[2-[(3S)-pyrrolidin-3-yl]acetyl]piperazine-1-carbonyl]phenyl]-1-methyl-imidazole-2-carboxamide formate] | 40 nM | – |
| COc1ccc(-c2cnc(C(=O)Nc3ccc(C(=O)N4CC(NC(=O)CN)C4)c(Cl)c3)n2C)c(F)c1F [Example 217, N-(4-(3-(2-aminoacetamido)azetidine-1-carbonyl)-3-chlorophenyl)-5-(2,3-difluoro-4-methoxyphenyl)-1-methyl-1H-imidazole-2-carboxamide formate] | 90 nM | – |
| Cn1c(-c2ccc(OC(F)F)cc2F)cnc1C(=O)Nc1ccc(C(=O)N2CCN(C(=O)C[C@@H]3CCCN3)CC2)c(Cl)c1 [Example 159, N-[3-chloro-4-[4-[2-[(2S)-pyrrolidin-2-yl]acetyl]piperazine-1-carbonyl]phenyl]-5-[4-(difluoromethoxy)-2-fluoro-phenyl]-1-methyl-imidazole-2-carboxamide formate] | 70 nM | – |
| COc1ccc(-c2cnc(C(=O)Nc3ccc(C(=O)N4CCN(C(=O)C5CCN(CCN)CC5)CC4)c(Cl)c3)n2C)c(F)c1F [Example 290, N-[4-[4-[1-(2-Aminoethyl)piperidine-4-carbonyl]piperazine-1-carbonyl]-3-chloro-phenyl]-5-(2,3-difluoro-4-methoxy-phenyl)-1-methyl-imidazole-2-carboxamide formate] | – | IC90 [2]: 50 nM |
| CCc1cc(NC(=O)c2ncc(-c3ccc(OC)c(F)c3F)n2C)ccc1C(=O)N1CCC(C(=O)N2CCN(CCCN(C)C)CC2)CC1 [Example 97, 5-(2,3-difluoro-4-methoxy-phenyl)-N-[4-[4-[4-[3-(dimethylamino)propyl]piperazine-1-carbonyl]piperidine-1-carbonyl]-3-ethyl-phenyl]-1-methyl-imidazole-2-carboxamide] | 260 nM | – |
| CCc1cc(NC(=O)c2ncc(-c3ccc(OC)c(F)c3F)n2C)ccc1C(=O)N1CCC(C(=O)NCCN)CC1 [Example 100, N-(2-aminoethyl)-1-[4-[[5-(2,3-difluoro-4-methoxy-phenyl)-1-methyl-imidazole-2-carbonyl]amino]-2-ethyl-benzoyl]piperidine-4-carboxamide] | 340 nM | – |
| COc1ccc(-c2cnc(C(=O)Nc3ccc(C(=O)N4CCC(OCC5CNC5)CC4)c(Cl)c3)n2C)c(F)c1F [Example 23, N-[4-[4-(azetidin-3-ylmethoxy)piperidine-1-carbonyl]-3-chloro-phenyl]-5-(2,3-difluoro-4-methoxy-phenyl)-1-methyl-imidazole-2-carboxamide formate] | 60 nM | – |
| COc1ccc(-c2cnc(C(=O)Nc3ccc(C(=O)N4CCN(C(=O)C5CC(CN)C5)CC4)c(Cl)c3)n2C)c(F)c1F (stereo not shown) [Example 185, N-[4-[4-[3-(aminomethyl)cyclobutanecarbonyl]piperazine-1-carbonyl]-3-chloro-phenyl]-5-(2,3-difluoro-4-methoxy-phenyl)-1-methyl-imidazole-2-carboxamide formate] | 60 nM | – |
| Cn1c(-c2ccc(OCF)c(F)c2F)cnc1C(=O)Nc1ccc(C(=O)N2CCN(C(=O)C3CCN(CC(N)=O)CC3)CC2)c(Cl)c1 [Example 24, N-(4-(4-(1-(2-amino-2-oxoethyl)piperidine-4-carbonyl)piperazine-1-carbonyl)-3-chlorophenyl)-5-(2,3-difluoro-4-(fluoromethoxy)phenyl)-1-methyl-1H-imidazole-2-carboxamide] | 70 nM | – |
| Cn1c(-c2ccc(OCF)c(F)c2F)cnc1C(=O)Nc1ccc(C(=O)N2CCN(C(=O)C3(O)CCNCC3)CC2)c(Cl)c1 [Example 162, N-[3-chloro-4-[4-(4-hydroxypiperidine-4-carbonyl)piperazine-1-carbonyl]phenyl]-5-[2,3-difluoro-4-(fluoromethoxy)phenyl]-1-methyl-imidazole-2-carboxamide formate] | 30 nM | – |
| COc1ccc(-c2cnc(C(=O)Nc3ccc(C(=O)N4CCN(C(=O)C56CC(N)(C5)C6)CC4)c(Cl)c3)n2C)c(F)c1F [Example 132, N-[4-[4-(3-aminobicyclo[1.1.1]pentane-1-carbonyl)piperazine-1-carbonyl]-3-chloro-phenyl]-5-(2,3-difluoro-4-methoxy-phenyl)-1-methyl-imidazole-2-carboxamide formate] | 70 nM | – |
| Cn1c(-c2ccc(OCC#N)c(F)c2F)cnc1C(=O)Nc1ccc(C(=O)N2CCN(C(=O)N[C@@H]3CNC[C@H]3O)CC2)c(Cl)c1 [Example 7] | – | IC90 [2]: 70 nM |
| COc1ccc(-c2cnc(C(=O)Nc3ccc(C(=O)N4CCN(C(=O)C5CCN(CC(=O)O)CC5)CC4)c(Cl)c3)n2C)c(F)c1F [Example 288, 2-[4-[4-[2-Chloro-4-[[5-(2,3-difluoro-4-methoxy-phenyl)-1-methyl-imidazole-2-carbonyl]amino]benzoyl]piperazine-1-carbonyl]-1-piperidyl]acetic acid trifluoroacetate] | – | IC90 [2]: 470 nM |
| Cn1c(-c2ccc(F)c(C#N)c2F)cnc1C(=O)Nc1ccc(C(=O)N2CCN(C(=O)C3CCNCC3)CC2)c(Cl)c1 [Example 193, N-[3-chloro-4-[4-(piperidine-4-carbonyl)piperazine-1-carbonyl]phenyl]-5-(3-cyano-2,4-difluoro-phenyl)-1-methyl-imidazole-2-carboxamide formate] | 2590 nM | – |
| COc1ccc(-c2cnc(C(=O)Nc3ccc(C(=O)N4CCN(C(=O)C[C@@H]5CCCN5)CC4)c(Cl)c3)n2C)c(F)c1F [Example 154, N-[3-chloro-4-[4-[2-[(2S)-pyrrolidin-2-yl]acetyl]piperazine-1-carbonyl]phenyl]-5-(2,3-difluoro-4-methoxy-phenyl)-1-methyl-imidazole-2-carboxamide formate] | 70 nM | – |
| Cn1c(-c2ccc(OCF)c(F)c2F)cnc1C(=O)Nc1ccc(C(=O)N2CCN(C(=O)C[C@@H]3CCNC3)CC2)c(Cl)c1 [Example 158, N-[3-chloro-4-[4-[2-[(3S)-pyrrolidin-3-yl]acetyl]piperazine-1-carbonyl]phenyl]-5-[2,3-difluoro-4-(fluoromethoxy)phenyl]-1-methyl-imidazole-2-carboxamide formate] | 40 nM | – |
| COc1ccc(-c2cnc(C(=O)Nc3ccc(C(=O)N4CCC(C(=O)N5CCC(N)CC5)CC4)c(Cl)c3)n2C)c(F)c1F [Example 39, N-[4-[4-(4-aminopiperidine-1-carbonyl)piperidine-1-carbonyl]-3-chloro-phenyl]-5-(2,3-difluoro-4-methoxy-phenyl)-1-methyl-imidazole-2-carboxamide formate] | 70 nM | – |
| COc1ccc(-c2cnc(C(=O)Nc3ccc(C(=O)N4CCN(C(=O)CC5(O)CCNCC5)CC4)c(Cl)c3)n2C)c(Cl)c1F [Example 182, 5-(2-chloro-3-fluoro-4-methoxy-phenyl)-N-[3-chloro-4-[4-[2-(4-hydroxy-4-piperidyl)acetyl]piperazine-1-carbonyl]phenyl]-1-methyl-imidazole-2-carboxamide formate] | 70 nM | – |
| N-(azetidin-3- ylmethyl)-1-[2-chloro- 4-[[5-[4- (cyanomethoxy)-2,3- difluoro-phenyl]-1- methyl-imidazole-2- carbonyl]amino]benzoyl] piperidine-4- carboxamide trifluoroacetate [Example 264] | – | IC90 (90% growth inhibitory concentration, Acinetobacter baumannii ATCC17961, Iso-Sensitest broth, read-out: ATCC 17961 IC90): 90 nM |
| Cn1c(-c2ccc(OC(F)F)c(F)c2F)cnc1C(=O)Nc1ccc(C(=O)N2CCC(C(=O)NC[C@H]3CCNC3)CC2)c(Cl)c1 [Example 48, 1-[2-chloro-4-[[5-[4-(difluoromethoxy)-2,3-difluoro-phenyl]-1-methyl-imidazole-2-carbonyl]amino]benzoyl]-N-[[(3S)-pyrrolidin-3-yl]methyl]piperidine-4-carboxamide trifluoroacetate] | 40 nM | – |
| COc1ccc(-c2cnc(C(=O)Nc3ccc(C(=O)N4CCN(C(=O)C5CCNCC5)CC4)c(Cl)c3)n2C)c(F)c1F [Example 265, N-[3-chloro-4-[4-(piperidine-4-carbonyl)piperazine-1-carbonyl]phenyl]-5-(2,3-difluoro-4-methoxy-phenyl)-1-methyl-imidazole-2-carboxamide hydrochloride] | 70 nM | – |
| COc1ccc(-c2cnc(C(=O)Nc3ccc(C(=O)N4CCC(C(=O)N5CCN[C@@H](CO)C5)CC4)c(Cl)c3)n2C)c(F)c1F [Example 30, N-[3-chloro-4-[4-[(3R)-3-(hydroxymethyl)piperazine-1-carbonyl]piperidine-1-carbonyl]phenyl]-5-(2,3-difluoro-4-methoxy-phenyl)-1-methyl-imidazole-2-carboxamide] | 170 nM | – |
| COc1ccc(-c2cnc(C(=O)Nc3ccc(C(=O)N4CCC(C(=O)NCc5ccncc5)CC4)c(Cl)c3)n2C)c(F)c1F [Example 36, 1-[2-chloro-4-[[5-(2,3-difluoro-4-methoxy-phenyl)-1-methyl-imidazole-2-carbonyl]amino]benzoyl]-N-(4-pyridylmethyl)piperidine-4-carboxamide] | 130 nM | – |
